Measurements taken from PubChem BioAssay (NCI).
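Growth conditions: 96-well plates. Treatment: test compound, 48 hours, 5 concentrations. Analysis: linear interpolation between bracketing concentrations; unreached endpoints set to highest concentration. At the TGI there is no net growth.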

How the values were obtained:
Assay in all cases: inhibition of tumour cell growth, NCI panel, 48 h
A498 renal = test system: A498 renal
K-562 leukemia = test system: K-562 leukemia
KM12 colon = test system: KM12 colon
OVCAR-8 ovarian = test system: OVCAR-8 ovarian
SF-539 CNS = test system: SF-539 CNS
SK-MEL-2 melanoma = test system: SK-MEL-2 melanoma
SNB-75 CNS = test system: SNB-75 CNS
SW-620 colon = test system: SW-620 colon
HCT-116 colon = test system: HCT-116 colon

Compound	TGI (A498 renal) [µM]	TGI (K-562 leukemia) [µM]	TGI (KM12 colon) [µM]	TGI (OVCAR-8 ovarian) [µM]	TGI (SF-539 CNS) [µM]	TGI (SK-MEL-2 melanoma) [µM]	TGI (SNB-75 CNS) [µM]	TGI (SW-620 colon) [µM]	TGI (HCT-116 colon) [µM]
c1ccc(OCCSCCCCCCCCCCSCCOc2ccccc2)cc1	> 100	> 100	> 100	> 100	> 100	> 100	> 100	> 100	
COC(=O)/C=C/c1ccc2c(c1)CC1(Cc3ccccc3C1)C2	> 100	> 100	> 100	> 100	> 100	> 100			1.34
Cc1cc(S(=O)(=O)O)c(NC(=O)c2oc3cc(O)ccc3c(=O)c2C)cc1Cl		> 100	> 100	> 100	> 100	> 100	> 100	> 100	> 100
Cc1ccc(S(=O)(=O)N/N=C2\C3CC4CC(C3)C2C4)cc1 (configuration not stated)		> 100	> 100	> 100	> 100	> 100	> 100	> 100	
CCOC(=O)c1nc2ccccc2nc1NCc1ccc(Cl)cc1Cl	> 100	> 100	> 100	> 100	> 100	> 100	> 100	> 100	> 100
Cc1cc(=O)[nH]c(NNC(C#N)c2ccc([N+](=O)[O-])cc2)n1 (configuration not stated)		> 100	> 100	> 100	> 100	> 100	> 100	> 100	> 100
Nc1c(N=Nc2ccc(-c3ccc(N=Nc4c(O)ccc5cc(S(=O)(=O)O)cc(S(=O)(=O)O)c45)cc3)cc2)c(S(=O)(=O)O)cc2cc(S(=O)(=O)O)c(N=Nc3ccccc3)c(O)c12	> 100	> 100	> 100	> 100	> 100	> 100	90.7	> 100	> 100
CC(=O)Nc1ccc(C(=O)N2N=C(C)/C(=C/c3ccc(O)cc3)C2=O)cc1		> 100	> 100	> 100	> 100	> 100	> 100	> 100	> 100
OC12CCCCCC1(N1CCOCC1)c1ccccc12 (configuration not stated)	> 100	> 100	> 100	> 100	> 100	> 100	> 100	> 100	> 100
CC(=O)NC1=C(NCC(C)C)C(=O)c2ccccc2C1=O	> 100	36.7	> 100	47.2	32.2	67.8	31.1	33.1	35.2
COC(=O)n1c(C[P+](c2ccccc2)(c2ccccc2)c2ccccc2)cc2ccccc21	22.7	16.2	3.94	10.4	14.7	4.97		13.1	11
CCN(CC)CCCCC1CCN(CC(=O)N2c3ccccc3NC(=O)CC2C)CC1 (configuration not stated)	> 100	> 100	> 100	> 100	> 100	> 100	> 100	> 100	> 100
C/C(=C\Cc1cc(O)ccc1O)CCc1c(C)cc(O)c(C=O)c1C	> 100	> 100	> 100	33.9	38.3	58.6	77.4	> 100	41
O=c1c2c(nc3n1CCC3)sc1c(O)c(Br)ccc12	24.5	59.2	29.7	24.2	33	39.3	> 100	29.9	35.2
COC(=O)C(C(=O)C(=O)NC1Nc2ccc(C)cc2S1)c1nc2ccc(Cl)cc2[nH]c1=O (configuration not stated)	> 100	> 100	> 100	> 100	> 100	> 100	> 100	> 100	> 100
COC(=O)CC(NC(=O)OCc1ccccc1)C(C(=O)OCc1ccccc1)C1(C)OCCO1 (configuration not stated)	> 100	> 100		> 100	> 100	43.8	73.2	> 100	> 100
CC1(C)COC(c2c(-c3ccccc3)noc2CS(=O)c2ccccc2)=N1 (configuration not stated)	> 100	> 100	> 100	> 100	> 100	70.2	> 100	> 100	> 100
COc1ccc(-c2c3ccccc3c(-c3ccc(OCCCCCBr)cc3)c3ccccc23)cc1		> 100	> 100	> 100	> 100	> 100		> 100	> 100
CCOC1=C2NC(Cc3ccc(F)cc3)=NC2C(=O)c2ccccc21 (configuration not stated)	87.9	> 100	> 100	61.9	36	44.2	55.1		
